The source of these data is patent US12065470B2, “Zinc-charged peptides for the treatment of cancer and alzheimer's disease” (priority 2022, dated 2024).

Starred links: 1 amine or outer side, 2 acyl side, 3 side chain; linkers in the order of their positions; H or OH if unused. Positions of bridges follow the written chain, without caps; N, C: chain ends. Non-standard residues stand in square brackets, D forms with d. Residues, ends and D or L forms follow the SMILES beside them. Chains are numbered I, II in the order given. No end group written: not given here. Actinocin(9to1) = Cc1c2oc3c(C)ccc(C(=O)[*:1])c3nc-2c(C(=O)[*:2])c(N)c1=O; NMeV = CN[C@H](C(=O)O)C(C)C; Sar = CNCC(=O)O

Data set [1] has as its system HT-29 colon cancer cells. The data set is described as follows: Combination with chemotherapy drugs, apoptosis in HT-29. The class given is cell-based. The conditions noted are these: for interaction of chemotherapy drug with zinc-charged peptide (apoptosis): drug 6 μg per ml 12 hours, then zinc-charged 4H 4 μM for 6 hours, HT-29. As to the method: To test this, HT-29 colon cancer cells were pre-incubated with various chemotherapy drugs at 6 μg per ml for 12 hours, then zinc-charged 4H at 4 μM was added for an additional 6 hours. Most chemotherapy drugs take up to 48 hours to see substantial apoptosis, and as such, the cells were pre-incubated with chemotherapy drugs first. The chemotherapy drugs tested included actinomycin (“A”), carmustine (“C”), docorubicin (“Dox”), genistin (“G”), 5-FU, and Tarceva.

Data set [2] is described as follows: Absorption by gastrointestinal tract (earlier work). Conditions: before digestion with papain. The source says: (§1) Since alpha-lactalbumin is the major milk protein present in milk, this protein was first tested to determine if the bioactive peptides were derived from alpha-Lactalbumin. Purified alpha-lactalbumin was therefore treated with EDTA and zinc acetate.

The subject of data set [3] is various cancer cell lines. The data set is described as follows: Apoptosis-inducing activity on various cancer cell lines (earlier work). In kind it is cell-based.
Description: Cow milk is known to contain numerous proteins and other beneficial compounds for humans.
as §1

Data set [4] is described as follows: Water solubility of the peptide. In kind it is physicochemical. The conditions noted are these: uncharged peptide. An excerpt:
The first peptide, listed as SEQ. ID NO. 1 in the accompanying sequence listing, has an amino acid sequence of E-Y-G-L-F-Q-I-S-N-K-L. This peptide, which is derived from natural human alpha-lactalbumin, will be referred to herein as “4H.” The second peptide, listed as SEQ. ID NO. […] This peptide has an amino acid sequence of E-Y-G-L-F-Q-I-S-N-K-K and will be referred to herein as “4H3.” Both these peptides were charged with zinc ions using the disclosed method to activate their apoptotic activities. Further, once these two peptides were charged with zinc ions, additional effects such as reducing Tau protein, increasing brain ATP levels and inhibiting P38 in the brain were observed, showing that these zinc-charged peptides further have a role in treating diseases involving tauopathy, such as Alzheimer's Disease and Parkinson's Disease.
Disclosed herein are two zinc-charged chemically synthesized peptides based upon the alpha-lactalbumin that are able to treat cancer and diseases involving tauopathy once activated by the disclosed method of charging the peptides with zinc ions. The first peptide, 4H, has an amino acid sequence of E-Y-G-L-F-Q-I-S-N-K-L (Seq. No. 1). The second peptide, 4H3, has an amino acid sequence of E-Y-G-L-F-Q-I-S-N-K-K (Seq. No. 2). […]

The target of data set [5] is T1, hexokinase II (Homo sapiens, UniProt P52789).
T1 sequence (P52789 1-917): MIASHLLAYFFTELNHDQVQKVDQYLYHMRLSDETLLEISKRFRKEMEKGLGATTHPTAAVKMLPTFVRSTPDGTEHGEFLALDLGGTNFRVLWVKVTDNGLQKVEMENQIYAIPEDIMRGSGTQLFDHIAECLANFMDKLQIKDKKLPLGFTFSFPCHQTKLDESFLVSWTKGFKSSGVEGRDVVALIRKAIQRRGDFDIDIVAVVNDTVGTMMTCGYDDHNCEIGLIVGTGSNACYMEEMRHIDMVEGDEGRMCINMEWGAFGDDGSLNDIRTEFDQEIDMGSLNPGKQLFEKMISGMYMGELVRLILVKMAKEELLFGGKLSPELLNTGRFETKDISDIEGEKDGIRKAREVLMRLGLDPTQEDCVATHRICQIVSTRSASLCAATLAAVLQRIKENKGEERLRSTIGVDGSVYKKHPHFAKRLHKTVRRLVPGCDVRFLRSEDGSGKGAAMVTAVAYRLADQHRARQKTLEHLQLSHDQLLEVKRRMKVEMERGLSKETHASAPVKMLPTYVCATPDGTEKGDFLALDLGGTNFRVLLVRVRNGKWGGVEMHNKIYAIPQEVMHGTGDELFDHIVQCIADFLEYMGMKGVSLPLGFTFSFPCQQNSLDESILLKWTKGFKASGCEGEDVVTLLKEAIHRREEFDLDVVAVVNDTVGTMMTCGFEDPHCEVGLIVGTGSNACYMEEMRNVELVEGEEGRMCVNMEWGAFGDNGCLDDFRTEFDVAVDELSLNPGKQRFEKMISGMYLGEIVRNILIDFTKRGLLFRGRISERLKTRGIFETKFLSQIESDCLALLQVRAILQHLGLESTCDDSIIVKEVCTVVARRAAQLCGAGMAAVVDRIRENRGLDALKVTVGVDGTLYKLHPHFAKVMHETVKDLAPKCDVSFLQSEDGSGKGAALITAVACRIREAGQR
Kind of data set: Subcellular hexokinase II activity in HT-29. Conditions: HT-29, 1 μM, 5 hours. In kind it is cell-based. As to the method:
FIG. 14 is a bar graph depicting the subcellular hexokinase II activity in mitochondria, cytosol, and microsome of HT-29 cells incubated with the zinc-charged peptide (4H, 1 μM, for 5 hours) compared to a control of only the vehicle.
FIGS. 14-16 depicts the testing results validating that the zinc-charged peptides inhibit each of these three bioenergetic pathways. FIG. 14 depicts the subcellular hexokinase II activity in mitochondria, cytosol, and microsome to determine whether the zinc-charged peptides inhibit the hexokinase II activity in mitochondria. For this test, HT-29 cancer cells were incubated with zinc-charged 4H at 1 μM for 5 hours. After incubation, sub-cellular fractions including cytosol, microsome, and mitochondria were prepared and the hexokinase II activity on these sub-cellular fractions were tested.

Another data set has as its system brain ATP. Kind of data set: Brain ATP level in mice after oral dosing. In kind it is in vivo. Conditions: 4H 0.5 mg per mouse per day, 5 days, normal mice. As to the method: FIG. 10 is a bar graph depicting the brain ATP level of normal mice after the mice were orally administered the zinc-charged peptide (4H, 0.5 mg/mouse) for five days compared to a control.
FIG. 11a is a bar graph depicting the brain ATP level of mice after the mice were orally administered the zinc-charged peptide (4H3, 1 mg/mouse) for five days compared to a control.
(§2) In mice fed with 0.5 mg of zinc-charged 4H for 5 days, the brain glycolysis of these mice was enhanced by 44%.
FIGS. 11a-d provide the graphical representations of these observations. FIG. 11a depicts the level of brain ATP in mice that were orally administered zinc-charged 4H3 compared to mice who were given the control. […] FIG. 11b depicts the level of brain Tau protein ATP in mice that were orally administered zinc-charged 4H3 compared to mice who were given the control. In this test, a 2.7 μg protein load was utilized. […] FIG. 11c depicts a retest of FIG. 11b, but with a lower protein load utilized instead. […] Lastly, FIG. 11d depicts the brain P38 MAPK levels in mice that were orally administered zinc-charged 4H3 compared to mice who were given the control. In this test, the mice given the zinc-charged 4H3 saw their brain P38 MAPK levels decrease by 61%.

Another data set relates to Calu-1 lung cancer cells. Kind of data set: Glycolysis (lactate) in Calu-1 cell lysate. In kind it is cell-based. Conditions: Calu-1, FIG. 8b. How it is done: (§3) FIG. 8b is a bar graph depicting the level of glycolysis end product lactate in Calu-1 lung cancer cell lysate and of normal WI38 lung cell lysate after incubation with zinc-charged peptide 4H compared to a control of unincubated Calu-1 lung cancer cell lysate and unincubated normal WI38 lung cell lysate.
(§4) The zinc-charged peptides ability to inhibit glycolysis in other cancer cell lines, such as lung cancer, compared to their normal counterparts was also tested. […] To further study this observed phenomena in vivo, normal mice were fed with the zinc-charged 4H for five days, and the glycolysis of normal brain cells were studied. FIG. 9 depicts the results of this study. For this study, two groups of mice having four mice per group were compared, one being the control and the other being fed 0.5 mg of zinc-charged 4H per mouse per day for 5 days orally. After 5 days, brain and muscle tissue was collected, homogenized, and assayed for glycolysis rate.

Data set [6] deals with T1, hexokinase II. Kind of data set: In vitro hexokinase II assay. In kind it is biochemical. As to the method: To test confirm that the zinc-charged peptides inhibit hexokinase II resulting in the inhibition of glycolysis, an in vitro hexokinase II assay was performed. FIG. 7 depicts the results of the in vitro hexokinase II assay. In this test, it was observed that hexokinase II was inhibited by zinc-charged 4H in a dose-dependent manner. […] These findings confirm that the zinc-charged peptides inhibit glycolysis at the hexokinase II enzyme level.

In data set [7] the test system is HT-29 colon cancer cells. The data set is described as follows: Glycolysis (lactate) in HT-29 cell lysate. The class given is cell-based. How it is done:
(§5) To determine the mechanism of induction of apoptosis to HT-29 cancer cells by the zinc-charged peptides, a low concentration (1 μM) of zinc-charged 4H was incubated with HT-29 cancer cells, followed by biochemical analysis of the cell lysate of the HT-29 cancer cells.
(§6) Furthermore, the decreased lactate was associated with a lower ATP level and a lower Glucose-6-phosphate (G-6-P) level in HT-29 cells.
as §4

For another data set, the system named is brain tissue glycolysis. Kind of data set: Brain glycolysis in normal mice after oral dosing. In kind it is in vivo. Conditions: 0.5 mg per mouse per day, 5 days. How it is done: FIG. 9a is a bar graph depicting the level of glycolysis in the brain tissue of normal mice (N=4) after the mice were orally administered the zinc-charged peptide (4H, 0.5 mg/mouse) for five days compared to a control.
as §4, §2

The subject of data set [8] is normal colon cell line CCD18Co. The data set is described as follows: Glycolysis (lactate) in CCD18Co cell lysate. The conditions noted are these: FIG. 8a. In kind it is cell-based. How it is done:
FIG. 8a is a bar graph depicting the level of glycolysis end product lactate in HT-29 colon cancer cell lysate and of normal CCD18Co colon cell lysate after incubation with zinc-charged peptide 4H compared to a control of unincubated HT-29 cancer cell lysate and unincubated normal CCD18Co colon cell lysate.
as §4

The test system of a further data set is muscle tissue glycolysis. The data set is described as follows: Muscle glycolysis in normal mice after oral dosing. The class given is in vivo. Conditions: 0.5 mg per mouse per day, 5 days. As to the method:
FIG. 9b is a bar graph depicting the level of glycolysis in the muscle tissue of normal mice after the mice were orally administered the zinc-charged peptide (4H, 0.5 mg/mouse) for five days compared to a control.
as §4, §2

For the next data set, the system named is normal WI38 lung cells. Kind of data set: Glycolysis (lactate) in WI38 cell lysate. The class given is cell-based. The conditions noted are these: WI38, FIG. 8b. As to the method:
as §3, §4

The next data set deals with HT-29 cancer cells. Kind of data set: Intracellular glucose-6-phosphate in HT-29. The class given is cell-based. The conditions noted are these: HT-29, 6 hours of incubation. How it is done:
FIG. 6 is a bar graph depicting the level of intracellular Glucose-6-phosphate in HT-29 cancer cells after being incubated with the zinc-charged peptide 4H compared with a control.
as §5, §6

Regarding `Cc1c2oc3c(C)ccc(C(=O)N[C@@H]4C(=O)N[C@H](C(C)C)C(=O)N5CCC[C@H]5C(=O)N(C)CC(=O)N(C)[C@@H](C(C)C)C(=O)O[C@@H]4C)c3nc-2c(C(=O)N[C@@H]2C(=O)N[C@H](C(C)C)C(=O)N3CCC[C@H]3C(=O)N(C)CC(=O)N(C)[C@@H](C(C)C)C(=O)O[C@@H]2C)c(N)c1=O` [actinomycin] (I: T[dV]P[Sar][NMeV] / II: T[dV]P[Sar][NMeV]; ester I:1-I:C, II:1-II:C; linker I:N-II:N via Actinocin(9to1)), the “interaction of chemotherapy drug with zinc-charged peptide (apoptosis)” value (“interaction of chemotherapy drug” below) with HT-29 colon cancer cells [1] is “synergistic”.

On to `COc1cccc2c1C(=O)c1c(O)c3c(c(O)c1C2=O)C[C@@](O)(C(=O)CO)C[C@@H]3O[C@H]1C[C@H](N)[C@H](O)[C@H](C)O1` [doxorubicin], for which the “interaction of chemotherapy drug” value in the data set with HT-29 colon cancer cells [1] was “synergistic”.

As for “zinc-bound alpha-lactalbumin: purified alpha-lactalbumin treated with EDTA and zinc acetate”, the “absorption by gastrointestinal tract” value in data set [2] was “unable to be absorbed”. Moreover, the apoptosis-inducing activity entry in [3] is on record as “contain apoptosis-inducing activity”.

Regarding `O=c1[nH]cc(F)c(=O)[nH]1` [5-FU], the “interaction of chemotherapy drug” value with HT-29 colon cancer cells [1] is given as “synergistic”.

Consider “EYGLFQISNKK [4H3, E-Y-G-L-F-Q-I-S-N-K-K]”, for which the “water solubility compared with 4H” value in [4] was “more water-soluble”.

As for `O=NN(CCCl)C(=O)NCCCl` [carmustine], the “interaction of chemotherapy drug” value with HT-29 colon cancer cells [1] is reported as “synergistic”.

With `O=c1c(-c2ccc(O)cc2)coc2cc(O[C@@H]3O[C@H](CO)[C@@H](O)[C@H](O)[C@H]3O)cc(O)c12` [genistin], the “interaction of chemotherapy drug” value with HT-29 colon cancer cells [1] is listed as “synergistic”.

Regarding “E-Y-G-L-F-Q-I-S-N-K-L (EYGLFQISNKL; also: charged with zinc ions) [zinc-charged 4H, ID NO; 1 peptide derived from human alpha-lactalbumin, charged with zinc ions]”, in the data set with hexokinase II [5], the “mitochondria associated hexokinase II activity inhibited” value is 53%. The “increase in brain ATP level” value with brain ATP was 31.4%. Further, the glycolysis inhibited is recorded as 11.1% with Calu-1 lung cancer cells; “up to 34.7%” in the data set on HT-29 colon cancer cells [7] (HT-29, FIG. 8a); 10.5% in data set [8]. For the same compound, the “hexokinase II inhibited” value is on record as 28.6% in the data set with hexokinase II [6] (5 μM), 79.1% with hexokinase II [6] (10 μM) and 94.6% with hexokinase II [6] (20 µM). Besides, the “lactate lower than control cells” value in the data set with HT-29 colon cancer cells [7] (1 μM, HT-29 lysate, FIG. 4) was 81.4%. Further, the brain glycolysis enhanced in the data set with brain tissue glycolysis is listed as 44%. Also, the muscle glycolysis increased in the data set on muscle tissue glycolysis was 15%. The compound also gave a glycolysis inhibition in the data set with normal WI38 lung cells of 0%. Besides, in the data set on HT-29 colon cancer cells [1] (4 μM for 6 hours after 12 hours drug pre-incubation), the “percentage of apoptosis in HT-29 after adding zinc-charged 4H to chemotherapy drugs” value is “significantly increased”. For the same compound, in the data set with HT-29 cancer cells, the “reduction of intracellular G-6-P level” value came to 39.6%.
